Reference: ChEMBL document CHEMBL1275326, “Synthesis and identification of a new class of antileukemic agents containing 2-(arylcarboxamide)-(S)-6-amino-4,5,6,7-tetrahydrobenzo[d]thiazole” (Eur J Med Chem, 2010)
Activity calls are given as the source filed them. The rule behind the calls is not given here.

What was measured:
CCRF-CEM [1] = assay: Cytotoxicity against human CEM cells after 48 to 72 hrs by MTT assay; assay type: functional, cell-based
K562 [2] = assay: Cytotoxicity against human K562 cells after 48 to 72 hrs by MTT assay; assay type: functional, cell-based
K562 [3] = assay: Cytotoxicity against human K562 cells at 10 to 100 uM after 24 hrs by trypan blue exclusion assay; assay type: functional, cell-based
K562 [4] = assay: Cytotoxicity against human K562 cells after 24 hrs by LDH release assay; assay type: functional, cell-based
K562 [5] = assay: Cell cycle arrest in human K562 cells assessed as accumulation at G0/G1 phase at 10 uM after 48 hrs using propidium iodide staining by FACS analysis; assay type: functional, cell-based
[6] = Cytotoxicity against human HEK293T cells at 1 to 5 uM after 48 to 72 hrs by MTT assay; assay type: cell-based; details: hek-293t
K562 [7] = assay: Cytotoxicity against human K562 cells at 10 to 100 uM by MTT assay; assay type: functional, cell-based; details: TDE = time-dependent effect
K562 [8] = assay: Cell cycle arrest in human K562 cells assessed as accumulation at G1 phase at 10 uM after 48 hrs using propidium iodide staining by FACS analysis; assay type: functional, cell-based
CCRF-CEM [9] = assay: Cytotoxicity against human CEM cells at 10 to 100 uM by MTT assay; assay type: functional, cell-based; details: TDE = time-dependent effect
K562 [10] = assay: Cell cycle arrest in human K562 cells assessed as accumulation at G2/M phase at 10 uM after 48 hrs using propidium iodide staining by FACS analysis; assay type: functional, cell-based
K562 [11] = assay: Cell cycle arrest in human K562 cells assessed as accumulation at S phase at 10 uM after 48 hrs using propidium iodide staining by FACS analysis; assay type: functional, cell-based

| SMILES | IC50 (CCRF-CEM [1]) | IC50 (K562 [2]) | also measured |
| --- | --- | --- | --- |
| COc1cccc(C(=O)Nc2nc3c(s2)C[C@@H](N)CC3)c1 | 13.8 µM | 17.9 µM | – |
| N[C@H]1CCc2nc(NC(=O)c3ccccc3)sc2C1 | 61.4 µM | 65.7 µM | – |
| N[C@H]1CCc2nc(NC(=O)c3ccc(Cl)cc3Cl)sc2C1 | 8.72 µM | 7.72 µM | – |
| N[C@H]1CCc2nc(NC(=O)c3cc([N+](=O)[O-])cc([N+](=O)[O-])c3)sc2C1 | 9.02 µM | 8.16 µM | – |
| N[C@H]1CCc2nc(NC(=O)c3ccccc3F)sc2C1 | 56.6 µM | 57.2 µM | – |
| N[C@H]1CCc2nc(NC(=O)c3cccc(Br)c3)sc2C1 | 22.8 µM | 21 µM | – |
| CC(C)(C)c1ccc(C(=O)Nc2nc3c(s2)C[C@@H](N)CC3)cc1.Cl | 4.52 µM | 4.52 µM | Activity (K562 [3]): Active; Activity (K562 [4]): Dose-dependent effect; Activity (K562 [5]): inactive; Activity [6]: Non-toxic; Activity (K562 [7]): tde; Activity (K562 [8]): inactive; Activity (CCRF-CEM [1]): Dose-dependent effect; Activity (CCRF-CEM [9]): tde; Activity (K562 [10]): inactive; Activity (K562 [11]): inactive; Activity (K562 [2]): Dose-dependent effect |
| N[C@H]1CCc2nc(NC(=O)c3c(F)cccc3F)sc2C1 | 81.2 µM | > 100 µM | – |
